{"source": "patent US20190328884A1", "about": "“COMPOSITIONS AND METHODS OF THEIR USE” (Chemic Laboratories, Inc., priority 2018, published 2019)", "origin": "cited, not measured here", "conditions": "in vivo"}
{"molecule": "NC(=O)N1c2ccccc2C=Cc2ccccc21", "note": "[carbamezepine]", "values": [{"measurement": "decrease in white blood cell count", "result": 25, "unit": "%"}, {"measurement": "increase in the risk of blood dyscrasias", "result": "five- to eight"}, {"measurement": "patients shown to have a 25% decrease in their white blood cell count", "result": 7, "unit": "%"}]}
